Reference: ChEMBL document CHEMBL1949573, “Isoform-selective thiazolo[5,4-b]pyridine S1P1 agonists possessing acyclic amino carboxylate head-groups” (Bioorg Med Chem Lett, 2012)
Converted amounts (≈) assume the structure as drawn. The source made the active and inactive calls. The rule behind the calls is not given here.

What was measured:
Rattus norvegicus [1] = assay: Immunomodulatory activity in Lewis rat assessed as peripheral lymphocyte reduction at 1 mg/kg, po after 24 hrs; assay type: functional; design: scale not given: the % may be the effect or the level left
Rattus norvegicus [2] = assay: Immunomodulatory activity in Lewis rat assessed as peripheral lymphocyte reduction at 0.1 mg/kg, po after 24 hrs relative to control; assay type: functional; design: scale not given: the % may be the effect or the level left
rat MDR1 [3] = assay: Permeability from apical to basolateral side in pig LLC-PK1 cells expressing rat MDR1; assay type: ADME, cell-based, Sus scrofa; details: read-out: permeability
Plasma [4] = assay: Plasma concentration in Lewis rat at 1 mg/kg, po; assay type: ADME, organism-based; design: dose 1 mg/kg, route oral; details: in vivo
[5] = molecular target: T1, Sphingosine 1-phosphate receptor 3 (Homo sapiens, UniProt Q99500); assay: Agonist activity at human S1P3 receptor expressed in CHO cells coexpressing chimeric Gq/i5 G-protein assessed as Ca2+ release by FLIPR assay relative to 0.2 uM S1P; assay type: functional, cell-based
T1 sequence (Q99500 whole entry): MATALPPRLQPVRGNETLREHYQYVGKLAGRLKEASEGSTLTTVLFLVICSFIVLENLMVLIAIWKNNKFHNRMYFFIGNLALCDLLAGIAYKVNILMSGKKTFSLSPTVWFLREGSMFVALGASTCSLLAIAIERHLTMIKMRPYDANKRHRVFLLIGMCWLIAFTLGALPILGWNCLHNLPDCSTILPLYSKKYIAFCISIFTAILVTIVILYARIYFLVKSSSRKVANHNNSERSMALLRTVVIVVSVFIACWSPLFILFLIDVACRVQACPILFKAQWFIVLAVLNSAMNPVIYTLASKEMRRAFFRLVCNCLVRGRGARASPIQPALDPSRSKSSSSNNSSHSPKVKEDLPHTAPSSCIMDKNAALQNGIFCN

Plasma [6] = assay: Plasma concentration in Lewis rat at 0.1 mg/kg, po; assay type: ADME, organism-based; design: dose 0.1 mg/kg, route oral; details: in vivo
[7] = Solubility of the compound in 0.01 N HCl; assay type: physicochemical; details: buffer
[8] = Solubility of the compound in phosphate buffer saline; assay type: physicochemical
[9] = Solubility of the compound in simulated intestinal fluid; assay type: physicochemical; details: simulated gi fluid
[10] = molecular target: T1, Sphingosine 1-phosphate receptor 3; assay: Agonist activity at human S1P3 receptor expressed in CHO cells coexpressing chimeric Gq/i5 G-protein assessed as Ca2+ release by FLIPR assay; assay type: functional, cell-based
[11] = molecular target: T2, Sphingosine 1-phosphate receptor 1 (Homo sapiens, UniProt P21453); assay: Agonist activity at eGFP-tagged human S1P1 receptor expressed in U2OS cells assessed as receptor internalization after 1 hr by Hoechst dye-based microscopic analysis; assay type: functional, cell-based
T2 sequence (P21453 whole entry): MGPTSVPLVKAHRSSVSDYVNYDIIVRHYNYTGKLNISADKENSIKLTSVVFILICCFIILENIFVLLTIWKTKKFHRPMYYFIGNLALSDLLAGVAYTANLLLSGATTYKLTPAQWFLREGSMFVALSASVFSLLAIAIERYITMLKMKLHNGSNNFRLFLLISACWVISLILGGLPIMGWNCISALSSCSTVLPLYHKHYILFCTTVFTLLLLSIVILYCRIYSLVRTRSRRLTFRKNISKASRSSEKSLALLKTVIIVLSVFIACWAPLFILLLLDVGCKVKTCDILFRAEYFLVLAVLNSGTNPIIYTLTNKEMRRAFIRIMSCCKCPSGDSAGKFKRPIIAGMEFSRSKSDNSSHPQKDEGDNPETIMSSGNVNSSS

[12] = molecular target: T2, Sphingosine 1-phosphate receptor 1; assay: Agonist activity at eGFP-tagged human S1P1 receptor expressed in U2OS cells assessed as receptor internalization after 1 hr by Hoechst dye-based microscopic analysis relative to 1 uM 1-(4-(6-benzylbenzofuran-2-yl)-3-fluorobenzyl)azetidine-3-carboxylic acid; assay type: functional, cell-based
[13] = Mean residence time in Sprague-Dawley rat at 1 mg/kg, iv and 3 mg/kg, po; assay type: ADME, organism-based; details: in vivo
[14] = molecular target: T3, Voltage-gated inwardly rectifying potassium channel KCNH2 (Homo sapiens, UniProt Q12809); assay: Binding affinity to human Erg
T3 sequence (Q12809 whole entry): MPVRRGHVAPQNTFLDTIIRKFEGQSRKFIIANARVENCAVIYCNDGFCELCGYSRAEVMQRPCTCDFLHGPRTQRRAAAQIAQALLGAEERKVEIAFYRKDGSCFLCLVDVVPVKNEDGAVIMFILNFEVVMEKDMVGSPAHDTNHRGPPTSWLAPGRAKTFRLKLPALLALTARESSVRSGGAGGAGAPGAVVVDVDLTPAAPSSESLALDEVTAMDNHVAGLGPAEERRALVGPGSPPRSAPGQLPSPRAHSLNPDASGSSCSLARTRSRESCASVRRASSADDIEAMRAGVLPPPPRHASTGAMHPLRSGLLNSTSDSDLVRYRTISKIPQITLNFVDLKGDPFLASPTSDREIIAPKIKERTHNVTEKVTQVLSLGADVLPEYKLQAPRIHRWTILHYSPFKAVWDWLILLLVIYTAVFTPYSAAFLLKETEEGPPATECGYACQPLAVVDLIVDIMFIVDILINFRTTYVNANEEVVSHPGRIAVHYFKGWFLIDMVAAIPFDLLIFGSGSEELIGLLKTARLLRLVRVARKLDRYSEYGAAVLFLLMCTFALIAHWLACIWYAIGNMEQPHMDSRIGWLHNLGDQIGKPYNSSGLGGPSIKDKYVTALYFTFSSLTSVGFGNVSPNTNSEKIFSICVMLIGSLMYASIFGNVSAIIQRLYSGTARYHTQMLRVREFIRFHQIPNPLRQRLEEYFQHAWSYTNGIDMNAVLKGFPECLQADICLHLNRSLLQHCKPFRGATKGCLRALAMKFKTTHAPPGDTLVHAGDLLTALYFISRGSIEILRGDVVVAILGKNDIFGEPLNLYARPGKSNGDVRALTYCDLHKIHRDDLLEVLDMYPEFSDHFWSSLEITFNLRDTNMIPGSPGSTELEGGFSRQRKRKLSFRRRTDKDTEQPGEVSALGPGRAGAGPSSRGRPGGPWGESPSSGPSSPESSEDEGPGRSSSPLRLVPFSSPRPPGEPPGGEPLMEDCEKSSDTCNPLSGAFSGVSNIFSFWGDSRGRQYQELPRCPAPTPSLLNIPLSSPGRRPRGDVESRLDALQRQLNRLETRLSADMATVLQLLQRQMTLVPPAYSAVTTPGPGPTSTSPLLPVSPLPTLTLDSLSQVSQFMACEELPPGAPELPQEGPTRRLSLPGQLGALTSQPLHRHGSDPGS

Cytochrome P450 3A4 [15] = molecular target: T4, Cytochrome P450 3A4 (Homo sapiens, UniProt P08684); assay: Induction of CYP3A4; assay type: ADME
T4 sequence (P08684 whole entry): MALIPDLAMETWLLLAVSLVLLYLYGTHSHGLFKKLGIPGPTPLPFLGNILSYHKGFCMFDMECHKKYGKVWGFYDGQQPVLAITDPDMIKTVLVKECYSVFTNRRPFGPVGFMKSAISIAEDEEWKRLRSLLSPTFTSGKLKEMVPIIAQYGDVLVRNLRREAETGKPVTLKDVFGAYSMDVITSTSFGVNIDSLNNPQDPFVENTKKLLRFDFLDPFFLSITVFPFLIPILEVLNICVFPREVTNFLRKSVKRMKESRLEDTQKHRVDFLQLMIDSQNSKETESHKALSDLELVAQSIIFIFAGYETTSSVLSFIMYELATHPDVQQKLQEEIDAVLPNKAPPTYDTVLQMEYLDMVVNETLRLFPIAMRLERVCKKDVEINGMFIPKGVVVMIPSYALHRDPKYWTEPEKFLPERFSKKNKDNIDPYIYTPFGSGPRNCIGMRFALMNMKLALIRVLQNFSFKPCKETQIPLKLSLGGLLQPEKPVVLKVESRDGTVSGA

Cytochrome P450 2D6 [16] = molecular target: T5, Cytochrome P450 2D6 (Homo sapiens, UniProt P10635); assay: Induction of CYP2D6; assay type: ADME
T5 sequence (P10635 whole entry): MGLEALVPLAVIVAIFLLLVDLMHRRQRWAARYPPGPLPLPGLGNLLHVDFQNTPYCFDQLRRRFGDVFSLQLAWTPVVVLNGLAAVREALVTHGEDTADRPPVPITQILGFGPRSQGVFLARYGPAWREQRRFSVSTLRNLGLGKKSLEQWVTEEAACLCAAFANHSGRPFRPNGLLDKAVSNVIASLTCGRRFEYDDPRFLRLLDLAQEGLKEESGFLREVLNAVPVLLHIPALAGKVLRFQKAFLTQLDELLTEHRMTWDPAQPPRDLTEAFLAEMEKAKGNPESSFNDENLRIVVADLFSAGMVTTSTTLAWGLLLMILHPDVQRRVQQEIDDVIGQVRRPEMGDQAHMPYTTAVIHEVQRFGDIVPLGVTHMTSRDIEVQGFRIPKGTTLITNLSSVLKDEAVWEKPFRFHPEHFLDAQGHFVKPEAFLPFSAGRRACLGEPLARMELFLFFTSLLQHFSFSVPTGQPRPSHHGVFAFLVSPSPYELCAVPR

[17] = molecular target: T3, Voltage-gated inwardly rectifying potassium channel KCNH2; assay: Inhibition of human Erg by electrophysiology assay
Rattus norvegicus [18] = assay: Immunomodulatory activity in Lewis rat assessed as peripheral lymphocyte reduction at 0.3 mg/kg, po after 24 hrs relative to control; assay type: functional; design: scale not given: the % may be the effect or the level left
rat MDR1 [19] = assay: Efflux ratio of permeability across pig LLC-PK1 cells expressing rat MDR1; assay type: ADME, cell-based, Sus scrofa
[20] = Oral bioavailability in Sprague-Dawley rat at 3 mg/kg; assay type: ADME, organism-based; details: in vivo
[21] = Fraction unbound in human plasma; assay type: ADME, cell-free
Rattus norvegicus [22] = assay: Immunomodulatory activity in Lewis rat assessed as peripheral lymphocyte reduction at 1 mg/kg, po after 24 hrs relative to control; assay type: functional; design: scale not given: the % may be the effect or the level left
[23] = Volume of distribution at steady state in Sprague-Dawley rat at 1 mg/kg, iv and 3 mg/kg, po; assay type: ADME, organism-based; details: in vivo, read-out: Vdss
Cytochrome P450 3A4 [24] = molecular target: T4, Cytochrome P450 3A4; assay: Inhibition of CYP3A4; assay type: ADME
[25] = Clearance in Sprague-Dawley rat at 1 mg/kg, iv and 3 mg/kg, po; assay type: ADME, organism-based; details: in vivo
Cytochrome P450 2D6 [26] = molecular target: T5, Cytochrome P450 2D6; assay: Inhibition of CYP2D6; assay type: ADME
[27] = Fraction unbound in rat plasma; assay type: ADME, cell-free

Cp (Plasma [4]) [ng/mL] | EC50 [10] [µM] | EC50 [11] [µM] | Efficacy [12] [%] | SMILES | Activity (Rattus norvegicus [1]) [%] | also measured
 | > 25 | 0.062 | 100 | O=C(O)CCCc1ccc(-c2nc3ccc(C4(c5ccccc5)CC4)nc3s2)c(F)c1 |  | 
 | > 2.5 | 0.015 | 113 | NCc1ccc(-c2nc3ccc(C4(c5ccccc5)CC4)nc3s2)c(F)c1 |  | 
10 | > 2.5 | 0.0002 | 114 | C[C@@](N)(CCc1ccc(-c2nc3ccc(C4(c5ccccc5)CC4)nc3s2)c(F)c1)C(=O)O | 71 | MRT [13]: 11.4 h; Activity [14]: > 30 µM; Activity (Cytochrome P450 3A4 [15]): Not Active; Activity (Cytochrome P450 2D6 [16]): Not Active; Activity (Rattus norvegicus [2]): inactive; INH [17]: > 10 µM; Papp A→B (rat MDR1 [3]): 40 nm/s; Activity (Rattus norvegicus [18]): 29%; efflux ratio (rat MDR1 [19]): 1.8; bioavailability [20]: 16%; solubility [7]: 6 ng/mL (≈ 0.013 µM); fraction unbound [21]: 0.037; Activity (Rattus norvegicus [22]): 56%; solubility [8]: < 1 ng/mL; Vd [23]: 4.1 L/kg; inhibition (INH) (Cytochrome P450 3A4 [24]): Not Active; solubility [9]: 108 ng/mL (≈ 0.234 µM); clearance [25]: 0.36 L/h/kg; inhibition (INH) (Cytochrome P450 2D6 [26]): Not Active; fraction unbound [27]: 0.039
2 | > 2.5 | 0.0005 | 115 | N[C@@H](CCc1ccc(-c2nc3ccc(C4(c5ccccc5)CC4)nc3s2)c(F)c1)C(=O)O | 22 | 
 | > 25 |  | 81 | O=C(O)CCc1ccc(-c2nc3ccc(C4(c5ccccc5)CC4)nc3s2)c(F)c1 |  | 
6 | > 2.5 | 0.003 | 93 | C[C@](N)(CCc1ccc(-c2nc3ccc(C4(c5ccccc5)CC4)nc3s2)c(F)c1)C(=O)O | 15 | 
 | > 25 | 0.123 | 92 | Nc1ccc(-c2nc3ccc(C4(c5ccccc5)CC4)nc3s2)c(F)c1 |  | 
 | > 2.5 | 0.008 | 121 | NCCCc1ccc(-c2nc3ccc(C4(c5ccccc5)CC4)nc3s2)c(F)c1 |  | 
 | > 25 | 0.478 | 155 | NCCc1ccc(-c2nc3ccc(C4(c5ccccc5)CC4)nc3s2)c(F)c1 |  | 
7 | 1.56 | 0.003 | 103 | O=C(O)CNCc1ccc(-c2nc3ccc(C4(c5ccccc5)CC4)nc3s2)c(F)c1 | 37 | Efficacy [5]: 17%
 | > 25 | 2.82 | 105 | O=C(O)c1ccc(-c2nc3ccc(C4(c5ccccc5)CC4)nc3s2)c(F)c1 |  | 
 | > 25 | 0.045 | 98 | Fc1ccccc1-c1nc2ccc(C3(c4ccccc4)CC3)nc2s1 |  | 
5 | > 2.5 | 0.0003 | 128 | N[C@H](CCc1ccc(-c2nc3ccc(C4(c5ccccc5)CC4)nc3s2)c(F)c1)C(=O)O | 55 | 

Continued, molecule first:

SMILES | Cp (Plasma [4]) [ng/mL] | EC50 [10] [µM] | EC50 [11] [µM] | Efficacy [12] [%] | Activity (Rattus norvegicus [1]) [%] | also measured
O=C(O)C1CN(Cc2ccc(-c3nc4ccc(C5(c6ccccc6)CC5)nc4s3)c(F)c2)C1 | 116 |  |  |  | 71 | Activity (Rattus norvegicus [2]): 65%; Papp A→B (rat MDR1 [3]): 146 nm/s; Efficacy [5]: 26%; Cp (Plasma [6]): 10 ng/mL; solubility [7]: 3 ng/mL (≈ 0.00653 µM); solubility [8]: 7 ng/mL (≈ 0.0152 µM); solubility [9]: 65 ng/mL (≈ 0.141 µM)
O=C(O)CCNc1ccc(-c2nc3ccc(C4(c5ccccc5)CC4)nc3s2)c(F)c1 |  | > 2.5 | 0.042 | 94 |  | 
N[C@@H](CC(=O)Nc1ccc(-c2nc3ccc(C4(c5ccccc5)CC4)nc3s2)c(F)c1)C(=O)O | 8 | > 2.5 | 0.002 | 102 | 4 | 
N[C@@H](CC(=O)O)C(=O)Nc1ccc(-c2nc3ccc(C4(c5ccccc5)CC4)nc3s2)c(F)c1 | 1 | 1.13 | 0.0005 | 134 | 0 | Efficacy [5]: 35%
O=C(O)CCCNc1ccc(-c2nc3ccc(C4(c5ccccc5)CC4)nc3s2)c(F)c1 |  | 7.12 | 0.036 | 113 |  | Efficacy [5]: 18%
O=C(O)CCC(=O)Nc1ccc(-c2nc3ccc(C4(c5ccccc5)CC4)nc3s2)c(F)c1 |  | 5.56 | 0.019 | 80 |  | Efficacy [5]: 39%
O=C(O)CNCCc1ccc(-c2nc3ccc(C4(c5ccccc5)CC4)nc3s2)c(F)c1 | 1 | 1.44 | 0.002 | 102 | 15 | Efficacy [5]: 11%
O=C(O)CCCCc1ccc(-c2nc3ccc(C4(c5ccccc5)CC4)nc3s2)c(F)c1 |  | > 25 | 2.41 | 103 |  | 
CN(CCC(=O)O)Cc1ccc(-c2nc3ccc(C4(c5ccccc5)CC4)nc3s2)c(F)c1 |  | > 25 | 0.196 | 153 |  | 
N[C@H](CC(=O)O)C(=O)Nc1ccc(-c2nc3ccc(C4(c5ccccc5)CC4)nc3s2)c(F)c1 | 2 | 0.834 |  | 100 | 0 | Efficacy [5]: 31%
O=C(O)CCNCc1ccc(-c2nc3ccc(C4(c5ccccc5)CC4)nc3s2)c(F)c1 | 12 | > 25 | 0.003 | 96 | 27 | 
N[C@H](CC(=O)Nc1ccc(-c2nc3ccc(C4(c5ccccc5)CC4)nc3s2)c(F)c1)C(=O)O | 4 | > 2.5 | 0.002 | 110 | 0 | 
O=C(O)CCCNCc1ccc(-c2nc3ccc(C4(c5ccccc5)CC4)nc3s2)c(F)c1 |  | > 2.5 | 0.179 | 128 |  | 
